The values that follow come from US20250276953A1, “SMALL MOLECULE SIRTUIN INHIBITORS AND USES THEREOF” (The Regents of the University of Michigan, priority 2022, published 2025).

In general, IC50 refers to the concentration needed to halve the response being measured. A low value points to inhibition by little substance.

T1 sequence (Q9NXA8 37-310): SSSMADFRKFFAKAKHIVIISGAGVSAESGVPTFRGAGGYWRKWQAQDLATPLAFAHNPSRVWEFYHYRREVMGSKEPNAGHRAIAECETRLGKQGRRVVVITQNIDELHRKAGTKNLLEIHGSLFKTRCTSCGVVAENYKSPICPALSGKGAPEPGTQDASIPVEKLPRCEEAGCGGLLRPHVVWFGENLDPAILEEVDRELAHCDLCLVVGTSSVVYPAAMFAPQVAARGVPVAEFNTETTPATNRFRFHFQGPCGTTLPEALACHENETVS

One assay deals with Ewing sarcoma cell line A4573. Put plainly: Growth inhibition of Ewing sarcoma cell line A4573. Type of assay: cell-based.
In the case of `CCOC(=O)c1ccc(Nc2nc(-c3ccc(NC(C)=O)cc3)cs2)cc1O` [Compound 1-2, Ethyl 4-((4-(4-acetamidophenyl)thiazol-2-yl)amino)-2-hydroxybenzoate], the “growth of Ewing sarcoma cells” value is on record as “inhibited growth”.

Consider `CCOC(=O)c1ccc(Nc2nc(-c3ccc(NC(=O)CCCCNC(=O)COc4cccc5c4C(=O)N(C4CCC(=O)NC4=O)C5=O)cc3)cs2)cc1O` (stereo not shown) [Compound 1-3, ethyl 4-((4-(4-(5-(2-((2-(2,6-dioxopiperidin-3-yl)-1,3-dioxoisoindolin-4-yl)oxy)acetamido)pentanamido)phenyl)thiazol-2-yl)amino)-2-hydroxybenzoate], for which the “growth of Ewing sarcoma cells” value is recorded as “inhibited growth”.

Another assay addresses T1, SIRT5 (Homo sapiens (Human), UniProt Q9NXA8). As to the kind of experiment: Degradation of SIRT5 protein. The class given is cell-based.
With `CCOC(=O)c1ccc(Nc2nc(-c3ccc(NC(=O)CCCCNC(=O)COc4cccc5c4C(=O)N(C4CCC(=O)NC4=O)C5=O)cc3)cs2)cc1O` (stereo not shown) [Compound 1-3, ethyl 4-((4-(4-(5-(2-((2-(2,6-dioxopiperidin-3-yl)-1,3-dioxoisoindolin-4-yl)oxy)acetamido)pentanamido)phenyl)thiazol-2-yl)amino)-2-hydroxybenzoate], the “degradation of protein SIRT5” value was “degraded”.

The target of another assay is T1, SIRT5. Put plainly: SIRT5 IC50 (Table I). Type of assay: biochemical.
Compound `O=C(O)c1ccc(NC(=S)Nc2nc(-c3ccc(F)c(S(=O)(=O)NC4CCCC4)c3)cs2)cc1O` [Compound 1-37, 4-(3-(4-(3-(N-cyclopentylsulfamoyl)-4-fluorophenyl)thiazol-2-yl)thioureido)-2-hydroxybenzoic acid] returned an IC50 of 24.9 ± 0.54 µM. Turning to `O=C(O)c1ccc(NC(=S)Nc2nc(-c3ccc([N+](=O)[O-])cc3F)cs2)cc1O` [Compound 1-34, 4-(3-(4-(2-fluoro-4-nitrophenyl)thiazol-2-yl)thioureido)-2-hydroxybenzoic acid], half-maximal inhibition (IC50) required 23.8 ± 2.71 µM. On the same count and under the same terms, in the case of `O=C(O)c1ccc(NC(=S)Nc2nc(-c3ccccc3F)cs2)cc1O` [Compound 1-15, 4-(3-(4-(2-fluorophenyl)thiazol-2-yl)thioureido)-2-hydroxybenzoic acid] it was 26.2 ± 2.54 µM; in that of `COc1cccc(-c2csc(NC(=S)Nc3ccc(C(=O)O)c(O)c3)n2)c1` [Compound 1-19, 2-hydroxy-4-(3-(4-(3-methoxyphenyl)thiazol-2-yl)thioureido)benzoic acid], 41.6 ± 3.79 µM; in that of `CC(=O)Nc1ccc(-c2csc(Nc3ccc(C(=O)O)c(O)c3)n2)cc1` [Compound 1-1, 4-((4-(4-acetamidophenyl)thiazol-2-yl)amino)-2-hydroxybenzoic acid], 26.4 ± 0.83 µM.

Compound `O=C(O)c1ccc(NC(=S)Nc2nc(-c3cccc(C(F)(F)F)c3)cs2)cc1O` [Compound 1-17, 2-hydroxy-4-(3-(4-(3-(trifluoromethyl)phenyl)thiazol-2-yl)thioureido)benzoic acid] gave a concentration for half-maximal inhibition (IC50) of 24.3 ± 2.54 µM. Compound `O=C(O)c1ccc(NC(=S)Nc2nc(-c3cccc(O)c3)cs2)cc1O` [Compound 1-21, 2-hydroxy-4-(3-(4-(3-hydroxyphenyl)thiazol-2-yl)thioureido)benzoic acid] yielded an IC50 of 32.8 ± 3.87 µM.

Turning to `O=C(O)c1ccc(NC(=S)Nc2nc(-c3ccc([N+](=O)[O-])c(F)c3)cs2)cc1O` [Compound 1-35, 4-(3-(4-(3-fluoro-4-nitrophenyl)thiazol-2-yl)thioureido)-2-hydroxybenzoic acid], the IC50 was determined as 14.9 ± 1.35 µM. Compared with the last compound, the IC50 is about 2.2-fold lower. The compound `O=C(O)c1ccc(NC(=S)Nc2nc(-c3ccc(F)c(F)c3)cs2)cc1O` [Compound 1-30, 4-(3-(4-(3,4-difluorophenyl)thiazol-2-yl)thioureido)-2-hydroxybenzoic acid] gave an IC50 of 16.1 ± 0.73 µM. `CC(=O)Nc1cccc(-c2csc(NC(=S)Nc3ccc(C(=O)O)c(O)c3)n2)c1` [Compound 1-24, 4-(3-(4-(3-acetamidophenyl)thiazol-2-yl)thioureido)-2-hydroxybenzoic acid] yielded an IC50 of 35.6 ± 1.3 µM.

`N#Cc1ccc(-c2csc(NC(=S)Nc3ccc(C(=O)O)c(O)c3)n2)cc1` [Compound 1-22, 4-(3-(4-(4-cyanophenyl)thiazol-2-yl)thioureido)-2-hydroxybenzoic acid] returned an IC50 of 11.4 ± 0.5 µM. Still for that read-out and setting: in the case of `COc1ccc(-c2csc(NC(=S)Nc3ccc(C(=O)O)c(O)c3)n2)cc1` [Compound 1-18, 2-hydroxy-4-(3-(4-(4-methoxyphenyl)thiazol-2-yl)thioureido)benzoic acid] it was 29.2 ± 2.88 µM. Consider `CNS(=O)(=O)c1ccc(-c2csc(NC(=S)Nc3ccc(C(=O)O)c(O)c3)n2)cc1` [Compound 1-28, 2-hydroxy-4-(3-(4-(4-(N-methylsulfamoyl)phenyl)thiazol-2-yl)thioureido)benzoic acid], for which the IC50 stood at 38.8 ± 3.13 µM. In the case of `CNS(=O)(=O)c1cccc(-c2csc(NC(=S)Nc3ccc(C(=O)O)c(O)c3)n2)c1` [Compound 1-29, 2-hydroxy-4-(3-(4-(3-(N-methylsulfamoyl)phenyl)thiazol-2-yl)thioureido)benzoic acid], half-maximal inhibition (IC50) was put at 26.1 ± 1.91 µM.

In turn, `CC(=O)Nc1ccc(-c2csc(NC(=S)Nc3ccc(C(=O)O)c(O)c3)n2)cc1` [Compound 1-5, 4-(3-(4-(4-acetamidophenyl)thiazol-2-yl)thioureido)-2-hydroxybenzoic acid] came in with an IC50 of 12.4 ± 0.58 µM. This IC50 is about 2.1-fold lower than that of the compound before. On to `Cc1ccccc1-c1csc(NC(=S)Nc2ccc(C(=O)O)c(O)c2)n1` [Compound 1-12, 2-hydroxy-4-(3-(4-(o-tolyl)thiazol-2-yl)thioureido)benzoic acid], for which it took 34 ± 2.18 µM to reach half-maximal inhibition (IC50). The same measure, in the same setting: in the case of `O=C(O)c1ccc(NC(=S)Nc2nc(-c3ccc(F)cc3F)cs2)cc1O` [Compound 1-31, 4-(3-(4-(2,4-difluorophenyl)thiazol-2-yl)thioureido)-2-hydroxybenzoic acid] it was 19.3 ± 0.93 µM; in that of `N#Cc1ccc(-c2csc(NC(=S)Nc3ccc(C(=O)O)c(O)c3)n2)cc1F` [Compound 1-32, 4-(3-(4-(4-cyano-3-fluorophenyl)thiazol-2-yl)thioureido)-2-hydroxybenzoic acid], 12.8 ± 0.48 µM. On the same count and under the same terms, the figure for `O=C(O)c1ccc(NC(=S)Nc2nc(-c3ccc(C(F)(F)F)cc3)cs2)cc1O` [Compound 1-16, 2-hydroxy-4-(3-(4-(4-(trifluoromethyl)phenyl)thiazol-2-yl)thioureido)benzoic acid] is 26.8 ± 1.42 µM; for `O=C(O)c1ccc(NC(=S)Nc2nc(-c3ccc([N+](=O)[O-])cc3)cs2)cc1O` [Compound 1-23, 2-hydroxy-4-(3-(4-(4-nitrophenyl)thiazol-2-yl)thioureido)benzoic acid] it is 4.3 ± 0.3 µM; for `CC(=O)Nc1ccc(-c2csc(NC(=S)Nc3ccc(O)c(C(=O)O)c3)n2)cc1` [Compound 1-8, 5-(3-(4-(4-acetamidophenyl)thiazol-2-yl)thioureido)-2-hydroxybenzoic acid] it is 55.9 ± 5.42 µM. As for `CC(=O)Nc1ccc(-c2csc(NC(=S)Nc3ccc(C(=O)O)cc3O)n2)cc1` [Compound 1-9, 4-(3-(4-(4-acetamidophenyl)thiazol-2-yl)thioureido)-3-hydroxybenzoic acid], half-maximal inhibition (IC50) required 50.7 ± 5.64 µM. With `O=C(O)c1ccc(NC(=S)Nc2nc(-c3ccc(O)cc3)cs2)cc1O` [Compound 1-20, 2-hydroxy-4-(3-(4-(4-hydroxyphenyl)thiazol-2-yl)thioureido)benzoic acid], the midpoint of inhibition, the IC50, lay at 42.5 ± 3.83 µM. On the same count and under the same terms, the figure for `O=C(O)c1ccc(NC(=S)Nc2nc(-c3ccc(F)cc3)cs2)cc1O` [Compound 1-13, 4-(3-(4-(4-fluorophenyl)thiazol-2-yl)thioureido)-2-hydroxybenzoic acid] is 17.3 ± 0.28 µM; for `Cc1cccc(-c2csc(NC(=S)Nc3ccc(C(=O)O)c(O)c3)n2)c1` [Compound 1-11, 2-hydroxy-4-(3-(4-(m-tolyl)thiazol-2-yl)thioureido)benzoic acid] it is 27.7 ± 1.02 µM; for `CC(=O)Nc1ccccc1-c1csc(NC(=S)Nc2ccc(C(=O)O)c(O)c2)n1` [Compound 1-25, 4-(3-(4-(2-acetamidophenyl)thiazol-2-yl)thioureido)-2-hydroxybenzoic acid] it is 55.6 ± 5.49 µM. In turn, `O=C(O)c1ccc(NC(=S)Nc2nc(-c3cccc(F)c3)cs2)cc1O` [Compound 1-14, 4-(3-(4-(3-fluorophenyl)thiazol-2-yl)thioureido)-2-hydroxybenzoic acid] gave a half-maximal inhibitory concentration (IC50) of 18.3 ± 0.95 µM. Same read-out and setting: in the case of `O=C(O)c1ccc(NC(=S)Nc2nc(-c3ccc(F)c([N+](=O)[O-])c3)cs2)cc1O` [Compound 1-36, 4-(3-(4-(4-fluoro-3-nitrophenyl)thiazol-2-yl)thioureido)-2-hydroxybenzoic acid] it was 11.6 ± 0.74 µM; in that of `CC(=O)Nc1ccc(-c2csc(NC(=S)Nc3ccc(C(=O)O)cc3)n2)cc1` [Compound 1-7, 4-(3-(4-(4-acetamidophenyl)thiazol-2-yl)thioureido)benzoic acid], 101 ± 8.48 µM. Compound `N#Cc1ccc(-c2csc(NC(=S)Nc3ccc(C(=O)O)c(O)c3)n2)c(F)c1` [Compound 1-33, 4-(3-(4-(4-cyano-2-fluorophenyl)thiazol-2-yl)thioureido)-2-hydroxybenzoic acid] had an IC50 of 14.8 ± 0.81 µM. `O=C(O)c1ccc(NC(=S)Nc2nc(-c3ccc(Cl)cc3)cs2)cc1O` [Compound 1-27, 4-(3-(4-(4-chlorophenyl)thiazol-2-yl)thioureido)-2-hydroxybenzoic acid] yielded an IC50 of 18.4 ± 0.28 µM. The compound `Cc1ccc(-c2csc(NC(=S)Nc3ccc(C(=O)O)c(O)c3)n2)cc1` [Compound 1-10, 2-hydroxy-4-(3-(4-(p-tolyl)thiazol-2-yl)thioureido)benzoic acid] registered an IC50 of 23.4 ± 0.92 µM. Compound `O=C(O)c1ccc(NC(=S)Nc2nc(-c3ccc(Br)cc3)cs2)cc1O` [Compound 1-26, 4-(3-(4-(4-bromophenyl)thiazol-2-yl)thioureido)-2-hydroxybenzoic acid] returned a concentration for half-maximal inhibition (IC50) of 18.6 ± 0.23 µM. The IC50 values of the last two compounds are within 1.5-fold of each other.

Turning to `O=C(O)c1ccc(NC(=S)Nc2nc(-c3ccc([N+](=O)[O-])c(S(=O)(=O)NCc4ccccc4)c3)cs2)cc1O` [Compound 1-39, 4-(3-(4-(3-(N-benzylsulfamoyl)-4-nitrophenyl)thiazol-2-yl)thioureido)-2-hydroxybenzoic acid], the midpoint of inhibition, the IC50, lay at 2.5 ± 0.21 µM. This IC50 lies about 7.4-fold lower than the previous one. `O=C(O)c1ccc(NC(=S)Nc2nc(-c3ccc(F)c(S(=O)(=O)NCc4ccccc4)c3)cs2)cc1O` [Compound 1-38, 4-(3-(4-(3-(N-benzylsulfamoyl)-4-fluorophenyl)thiazol-2-yl)thioureido)-2-hydroxybenzoic acid]: the IC50 was found to be 8.22 ± 1.3 µM.

Another assay deals with Ewing sarcoma cell line A673. Put plainly: Growth inhibition of Ewing sarcoma cell line A673. The class given is cell-based.
Consider `CCOC(=O)c1ccc(Nc2nc(-c3ccc(NC(C)=O)cc3)cs2)cc1O` [Compound 1-2, Ethyl 4-((4-(4-acetamidophenyl)thiazol-2-yl)amino)-2-hydroxybenzoate], for which the “growth of Ewing sarcoma cells” value is recorded as “inhibited growth”. With `CCOC(=O)c1ccc(Nc2nc(-c3ccc(NC(=O)CCCCNC(=O)COc4cccc5c4C(=O)N(C4CCC(=O)NC4=O)C5=O)cc3)cs2)cc1O` (stereo not shown) [Compound 1-3, ethyl 4-((4-(4-(5-(2-((2-(2,6-dioxopiperidin-3-yl)-1,3-dioxoisoindolin-4-yl)oxy)acetamido)pentanamido)phenyl)thiazol-2-yl)amino)-2-hydroxybenzoate], the “growth of Ewing sarcoma cells” value was “inhibited growth”.
